This passage reports Activity, IC50 and inhibition results from ChEMBL document CHEMBL5661979, “Pharmacological inhibition of BMK1 suppresses tumor growth through promyelocytic leukemia protein” (Cancer Cell, 2010).

The target in assay [1] is Ribosomal protein S6 kinase alpha-6 (Homo sapiens) (UniProt Q9UK32). In words: Inhibition of C-terminal RPS6KA6 kinase domain (unknown origin) assessed as remaining activity at 10 uM by ATP-competition binding assay relative to control.
A short description of assay [2]: Inhibition of MAP3K2/MAP3K3 in human HeLa cells lysate pre incubated for 15 mins followed by ATP acyl phosphate probe addition and measured after 10 mins by LC-MS/MS analysis. It counts as subcellular.
The target in assay [3] is T1, Phosphatidylinositol 5-phosphate 4-kinase type-2 alpha (Homo sapiens, UniProt P48426).
T1 sequence (P48426 whole entry): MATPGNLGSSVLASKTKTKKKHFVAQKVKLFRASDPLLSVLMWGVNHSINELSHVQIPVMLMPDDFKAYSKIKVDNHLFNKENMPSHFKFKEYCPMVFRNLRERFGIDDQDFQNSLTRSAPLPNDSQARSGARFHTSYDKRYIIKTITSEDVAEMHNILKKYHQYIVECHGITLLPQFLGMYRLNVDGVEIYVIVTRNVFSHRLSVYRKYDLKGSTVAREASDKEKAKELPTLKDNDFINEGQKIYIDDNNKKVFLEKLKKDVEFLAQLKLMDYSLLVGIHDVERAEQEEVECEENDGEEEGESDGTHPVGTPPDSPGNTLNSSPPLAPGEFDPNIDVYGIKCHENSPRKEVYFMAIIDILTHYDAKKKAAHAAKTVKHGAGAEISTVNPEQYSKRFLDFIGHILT
In words: Inhibition of PIP5K2A in human HeLa cells lysate pre incubated for 15 mins followed by ATP acyl phosphate probe addition and measured after 10 mins by LC-MS/MS analysis. The format is subcellular.

For assay [4], the target named is Phosphatidylinositol 4-kinase beta (Homo sapiens, UniProt Q9UBF8). As to the kind of experiment: Inhibition of PIK4CB in human HeLa cells lysate pre incubated for 15 mins followed by ADP acyl phosphate probe addition and measured after 10 mins by LC-MS/MS analysis. The format is subcellular.
Chain of Phosphatidylinositol 4-kinase beta (Q9UBF8 whole entry): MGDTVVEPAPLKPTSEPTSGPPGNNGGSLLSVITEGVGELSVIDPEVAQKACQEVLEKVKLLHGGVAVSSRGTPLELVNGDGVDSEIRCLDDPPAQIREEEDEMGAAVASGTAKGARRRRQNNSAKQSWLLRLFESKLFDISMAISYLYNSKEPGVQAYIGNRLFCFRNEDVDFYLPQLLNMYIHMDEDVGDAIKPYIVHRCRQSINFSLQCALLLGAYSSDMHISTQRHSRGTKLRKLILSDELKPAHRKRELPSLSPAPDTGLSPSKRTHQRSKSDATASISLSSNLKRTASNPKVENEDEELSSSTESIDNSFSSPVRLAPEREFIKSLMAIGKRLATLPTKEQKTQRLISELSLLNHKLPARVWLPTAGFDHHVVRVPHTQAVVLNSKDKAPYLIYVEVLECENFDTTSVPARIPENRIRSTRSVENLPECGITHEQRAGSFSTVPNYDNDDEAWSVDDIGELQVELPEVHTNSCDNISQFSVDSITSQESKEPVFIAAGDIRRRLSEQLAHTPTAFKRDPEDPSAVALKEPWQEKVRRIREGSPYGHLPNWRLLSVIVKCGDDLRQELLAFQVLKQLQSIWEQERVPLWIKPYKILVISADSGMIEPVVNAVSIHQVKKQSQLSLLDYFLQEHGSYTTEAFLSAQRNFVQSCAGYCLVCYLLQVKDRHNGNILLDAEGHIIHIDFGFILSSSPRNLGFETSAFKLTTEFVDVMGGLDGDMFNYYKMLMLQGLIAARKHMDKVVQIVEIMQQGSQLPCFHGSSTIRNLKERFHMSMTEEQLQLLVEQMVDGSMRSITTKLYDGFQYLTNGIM
Assay [5] has as its target Tyrosine-protein kinase Fyn (Homo sapiens, UniProt P06241). As to the kind of experiment: Inhibition of FYN in human HeLa cells lysate at 10 uM pre incubated for 15 mins followed by ADP acyl phosphate probe addition and measured after 10 mins by LC-MS/MS analysis relative to control. It counts as subcellular. The note with it: time 25.0 min.
Assay [6] can be described thus: Inhibition of PCTAIRE2/ICK in human HeLa cells lysate at 2 uM pre incubated for 15 mins followed by ADP acyl phosphate probe addition and measured after 10 mins by LC-MS/MS analysis relative to control. Particulars: 25 min, condition cancer.
Assay [7] deals with Serine/threonine-protein kinase tousled-like 2 (Homo sapiens, UniProt Q86UE8). In words: Inhibition of TLK2 in human HeLa cells lysate at 2 uM pre incubated for 15 mins followed by ADP acyl phosphate probe addition and measured after 10 mins by LC-MS/MS analysis relative to control. The format is subcellular. The note with it: time 25.0 min.
Chain of Serine/threonine-protein kinase tousled-like 2 (Q86UE8 whole entry, looked up): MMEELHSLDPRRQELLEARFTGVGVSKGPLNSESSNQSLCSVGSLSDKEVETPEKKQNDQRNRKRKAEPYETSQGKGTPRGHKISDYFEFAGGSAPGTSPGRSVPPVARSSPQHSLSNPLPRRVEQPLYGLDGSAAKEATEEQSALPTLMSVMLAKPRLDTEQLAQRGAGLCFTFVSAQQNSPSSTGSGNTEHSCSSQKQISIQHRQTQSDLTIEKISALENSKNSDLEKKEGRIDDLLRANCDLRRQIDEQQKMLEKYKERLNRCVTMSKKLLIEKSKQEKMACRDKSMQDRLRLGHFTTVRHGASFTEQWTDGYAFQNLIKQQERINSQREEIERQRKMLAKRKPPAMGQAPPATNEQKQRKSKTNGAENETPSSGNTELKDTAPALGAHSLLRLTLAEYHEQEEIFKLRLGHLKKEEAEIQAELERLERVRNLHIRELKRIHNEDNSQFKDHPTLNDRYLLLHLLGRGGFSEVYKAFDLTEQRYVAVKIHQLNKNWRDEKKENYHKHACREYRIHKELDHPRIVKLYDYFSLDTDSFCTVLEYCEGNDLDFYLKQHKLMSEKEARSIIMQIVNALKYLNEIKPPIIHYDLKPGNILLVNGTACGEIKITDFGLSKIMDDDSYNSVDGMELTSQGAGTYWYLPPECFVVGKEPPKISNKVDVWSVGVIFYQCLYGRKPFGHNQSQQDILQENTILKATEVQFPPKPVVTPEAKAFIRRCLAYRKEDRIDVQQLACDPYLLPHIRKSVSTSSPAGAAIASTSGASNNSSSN
Assay [8] deals with T2, Serine/threonine-protein kinase TAO2 (Homo sapiens) (UniProt Q9UL54).
T2 sequence (whole entry): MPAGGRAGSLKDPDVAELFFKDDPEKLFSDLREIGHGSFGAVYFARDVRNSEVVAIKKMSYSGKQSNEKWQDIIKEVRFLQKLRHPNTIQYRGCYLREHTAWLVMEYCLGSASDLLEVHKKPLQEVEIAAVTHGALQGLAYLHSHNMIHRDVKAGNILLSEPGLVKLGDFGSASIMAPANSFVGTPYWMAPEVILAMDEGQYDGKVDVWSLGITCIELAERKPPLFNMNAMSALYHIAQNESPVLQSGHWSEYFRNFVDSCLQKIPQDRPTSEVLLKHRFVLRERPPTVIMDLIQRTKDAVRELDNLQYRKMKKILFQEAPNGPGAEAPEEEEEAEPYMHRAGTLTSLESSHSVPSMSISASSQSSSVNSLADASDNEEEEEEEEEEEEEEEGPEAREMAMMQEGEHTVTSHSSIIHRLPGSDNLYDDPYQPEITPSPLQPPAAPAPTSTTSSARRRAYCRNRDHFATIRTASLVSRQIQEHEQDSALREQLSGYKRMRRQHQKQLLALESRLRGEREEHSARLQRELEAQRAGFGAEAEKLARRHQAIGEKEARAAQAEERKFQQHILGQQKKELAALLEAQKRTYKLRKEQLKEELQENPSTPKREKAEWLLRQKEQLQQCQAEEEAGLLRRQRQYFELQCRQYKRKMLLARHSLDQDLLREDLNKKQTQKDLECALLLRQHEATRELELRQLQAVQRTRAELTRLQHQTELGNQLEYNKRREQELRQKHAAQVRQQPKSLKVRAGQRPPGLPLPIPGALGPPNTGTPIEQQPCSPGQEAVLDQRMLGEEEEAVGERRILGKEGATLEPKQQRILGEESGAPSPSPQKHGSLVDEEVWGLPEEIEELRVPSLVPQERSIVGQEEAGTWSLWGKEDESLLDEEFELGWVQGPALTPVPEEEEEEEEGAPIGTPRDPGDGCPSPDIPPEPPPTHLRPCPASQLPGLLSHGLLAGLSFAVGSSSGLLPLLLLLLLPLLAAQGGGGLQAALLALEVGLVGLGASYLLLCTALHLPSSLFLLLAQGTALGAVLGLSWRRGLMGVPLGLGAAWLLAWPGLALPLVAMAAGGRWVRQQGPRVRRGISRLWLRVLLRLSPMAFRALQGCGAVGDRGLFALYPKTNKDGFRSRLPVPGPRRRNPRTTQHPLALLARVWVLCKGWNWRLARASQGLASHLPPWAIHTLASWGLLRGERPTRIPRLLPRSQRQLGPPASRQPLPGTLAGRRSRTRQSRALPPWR
In words: Inhibition of TAO2 in human HeLa cells lysate at 50 uM pre incubated for 15 mins followed by ATP acyl phosphate probe addition and measured after 10 mins by LC-MS/MS analysis relative to control. Particulars: time 25.0 min. The format is subcellular.

Assay [9] addresses Phosphatidylinositol 3-kinase catalytic subunit type 3 (Homo sapiens, UniProt Q8NEB9). In words: Inhibition of PIK3C3 in human HeLa cells lysate at 10 uM pre incubated for 15 mins followed by ATP acyl phosphate probe addition and measured after 10 mins by LC-MS/MS analysis relative to control. The format is subcellular. The note with it: time 25.0 min.
In assay [10] the target is Tyrosine-protein kinase Lyn (Homo sapiens, UniProt P07948). In words: Inhibition of LYN in human HeLa cells lysate at 2 uM pre incubated for 15 mins followed by ATP acyl phosphate probe addition and measured after 10 mins by LC-MS/MS analysis relative to control. The note with it: time 25.0 min. The format is subcellular.
Chain of Tyrosine-protein kinase Lyn (P07948 2-512 limits assumed): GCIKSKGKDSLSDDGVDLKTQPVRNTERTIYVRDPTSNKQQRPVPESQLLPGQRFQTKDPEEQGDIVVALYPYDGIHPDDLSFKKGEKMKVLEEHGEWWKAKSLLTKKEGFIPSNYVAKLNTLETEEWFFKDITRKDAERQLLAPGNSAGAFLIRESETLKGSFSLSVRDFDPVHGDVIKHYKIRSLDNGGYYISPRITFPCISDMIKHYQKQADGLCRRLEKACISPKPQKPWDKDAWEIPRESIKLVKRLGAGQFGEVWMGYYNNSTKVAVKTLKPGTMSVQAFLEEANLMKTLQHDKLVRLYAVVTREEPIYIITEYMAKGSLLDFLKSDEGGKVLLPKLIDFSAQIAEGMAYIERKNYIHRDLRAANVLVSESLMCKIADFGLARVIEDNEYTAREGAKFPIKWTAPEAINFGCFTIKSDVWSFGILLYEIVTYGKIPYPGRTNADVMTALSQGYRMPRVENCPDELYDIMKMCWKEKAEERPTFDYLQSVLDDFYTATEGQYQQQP

Bounds are passed on as bounds.

Chain of Tyrosine-protein kinase Fyn (P06241 2-537 limits assumed): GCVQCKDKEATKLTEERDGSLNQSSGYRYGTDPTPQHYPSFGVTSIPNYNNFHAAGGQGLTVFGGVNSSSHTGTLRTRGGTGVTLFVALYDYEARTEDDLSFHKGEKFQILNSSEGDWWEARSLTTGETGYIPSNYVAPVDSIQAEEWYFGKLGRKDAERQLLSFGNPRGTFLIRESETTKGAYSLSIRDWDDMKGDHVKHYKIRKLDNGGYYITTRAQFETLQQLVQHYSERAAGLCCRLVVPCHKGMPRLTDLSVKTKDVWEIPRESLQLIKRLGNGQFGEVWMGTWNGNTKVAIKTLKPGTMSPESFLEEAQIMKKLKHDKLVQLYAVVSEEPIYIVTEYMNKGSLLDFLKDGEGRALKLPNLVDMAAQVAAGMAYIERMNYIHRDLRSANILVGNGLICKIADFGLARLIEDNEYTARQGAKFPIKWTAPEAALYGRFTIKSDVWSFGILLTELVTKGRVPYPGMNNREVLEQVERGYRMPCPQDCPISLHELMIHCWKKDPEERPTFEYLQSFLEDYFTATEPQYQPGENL
Chain of Phosphatidylinositol 3-kinase catalytic subunit type 3 (Q8NEB9 whole entry): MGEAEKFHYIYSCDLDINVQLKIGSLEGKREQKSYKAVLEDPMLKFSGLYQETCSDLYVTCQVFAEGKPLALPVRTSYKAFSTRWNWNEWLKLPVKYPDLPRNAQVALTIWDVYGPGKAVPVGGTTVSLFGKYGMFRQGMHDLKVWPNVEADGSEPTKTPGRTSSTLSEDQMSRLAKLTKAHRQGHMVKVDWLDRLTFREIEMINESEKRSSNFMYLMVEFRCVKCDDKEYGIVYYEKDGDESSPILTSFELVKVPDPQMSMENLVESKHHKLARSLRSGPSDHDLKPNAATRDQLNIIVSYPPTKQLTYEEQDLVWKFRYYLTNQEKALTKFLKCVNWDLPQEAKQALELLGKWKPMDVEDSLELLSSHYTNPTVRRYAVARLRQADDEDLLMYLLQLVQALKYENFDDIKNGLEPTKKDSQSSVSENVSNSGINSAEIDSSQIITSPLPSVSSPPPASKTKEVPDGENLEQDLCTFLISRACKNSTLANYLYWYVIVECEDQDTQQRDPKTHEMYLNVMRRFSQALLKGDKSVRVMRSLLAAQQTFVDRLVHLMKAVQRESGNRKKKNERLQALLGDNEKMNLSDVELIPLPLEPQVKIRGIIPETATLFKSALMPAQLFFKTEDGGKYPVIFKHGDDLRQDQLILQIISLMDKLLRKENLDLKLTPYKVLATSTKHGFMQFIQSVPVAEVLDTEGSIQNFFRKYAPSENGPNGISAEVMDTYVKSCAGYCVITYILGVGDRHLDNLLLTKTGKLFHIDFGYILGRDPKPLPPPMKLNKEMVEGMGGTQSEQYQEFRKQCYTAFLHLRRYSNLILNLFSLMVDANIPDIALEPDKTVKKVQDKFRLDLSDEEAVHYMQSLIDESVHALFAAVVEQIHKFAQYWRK
Chain of Ribosomal protein S6 kinase alpha-6 (Homo sapiens) (Q9UK32 whole entry, the tested form may be a part): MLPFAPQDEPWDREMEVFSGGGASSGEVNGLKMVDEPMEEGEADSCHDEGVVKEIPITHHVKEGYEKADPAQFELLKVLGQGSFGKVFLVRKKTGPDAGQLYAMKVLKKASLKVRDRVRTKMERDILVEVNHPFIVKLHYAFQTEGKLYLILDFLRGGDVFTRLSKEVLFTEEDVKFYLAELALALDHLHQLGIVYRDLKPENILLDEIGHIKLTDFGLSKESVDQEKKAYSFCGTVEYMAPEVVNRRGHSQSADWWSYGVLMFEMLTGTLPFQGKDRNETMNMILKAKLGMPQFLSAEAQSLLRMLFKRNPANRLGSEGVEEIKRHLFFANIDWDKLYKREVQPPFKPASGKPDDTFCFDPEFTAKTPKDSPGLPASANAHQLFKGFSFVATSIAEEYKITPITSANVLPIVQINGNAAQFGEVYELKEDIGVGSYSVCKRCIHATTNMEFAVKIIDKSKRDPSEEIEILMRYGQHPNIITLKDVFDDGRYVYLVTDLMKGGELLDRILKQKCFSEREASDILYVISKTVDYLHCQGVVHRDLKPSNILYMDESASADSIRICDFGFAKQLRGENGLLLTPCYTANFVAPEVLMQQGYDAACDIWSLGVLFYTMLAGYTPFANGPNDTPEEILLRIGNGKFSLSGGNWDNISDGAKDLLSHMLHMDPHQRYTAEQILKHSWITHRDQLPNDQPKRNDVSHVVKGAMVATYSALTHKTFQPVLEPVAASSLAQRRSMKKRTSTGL

Regarding `CCOc1cc(N2CCC(O)CC2)ccc1Nc1ncc2c(n1)N(C)c1ccccc1C(=O)N2C`, the Activity in assay [1] stood at 31%. Also, the IC50 in assay [2], in assay [3] and in assay [4] was over 50 µM throughout. For the same compound, the inhibition in assay [5] was 11.9%; in assay [7], 7.3%; in assay [8], 6.6%; in assay [9], -4.3%; in assay [10] it was -6.3%. Moreover, the inhibition at 2 µM in assay [6] turned out to be 1.2%.
